The assay has as its system patients with AML. Briefly: ECOG E1900 trial: overall survival after induction with high-dose vs standard-dose daunorubicin plus cytarabine, by genotype. In kind it is in vivo, human. The conditions noted are these: for outcome with dose-intensified induction therapy: univariate analysis. The protocol: The present disclosure is based on mutational analysis of 18 genes in 398 patients with AML younger than 60 years of age randomized to receive induction therapy including high-dose or standard dose daunorubicin. Prognostic findings were further validated in an independent set of 104 patients.
Mutational analysis was performed on diagnostic patient samples from the ECOG E1900 trial in the test (n=398) and validation (n=104) cohorts. The test cohort comprised of all E1900 patients for whom viably frozen cells were available for DNA extraction and mutational profiling. The validation cohort comprised of a second set of patients for whom samples were banked in Trizol, which was used to extract DNA for mutational studies.
Clinical characteristics of the patients studied compared to the complete E1900 trial cohort are in Table 1. The median follow-up time of patients included for analysis was 47.4 months from induction randomization. Cytogenetic analysis, fluorescent in situ hybridization, and RT-PCR for recurrent cytogenetic lesions was performed as described initially by Slovak et al. and utilized previously with central review by the ECOG Cytogenetics Committee (see ref. 16 and 17).
Survival time was measured from date of randomization to date of death for those who died and date of last follow-up for those who were alive at the time of analysis. Survival probabilities were estimated using the Kaplan-Meier method and compared across mutant and wild-type patients using the log-rank test. Multivariate analyses were conducted using the Cox model with forward selection. Proportional hazards assumption was checked by testing for a non-zero slope in a regression of the scaled Schoenfeld residuals on functions of time (Table 3).
When necessary, such as the analyses performed in various subsets, results of the univariate analyses were used to select the variables to be included in the forward variable search. Final multivariate models informed the development of novel risk classification rules. When indicated, p-values were adjusted to control the family wise error rate (FWER) using the complete null distribution approximated by resampling obtained through PROC MULTTEST in SAS or the multtest library in R^19. These adjustements were performed to adjust for the probability of making one or more false discoveries given that multiple pairwise tests were being performed. The only exception is adjustment for tests regarding effect of mutations on response to induction dose where a step-down Holm procedure was used to correct for multiple testing. All analyses were performed using SAS 9.2 (www.sas.com) and R 2.12 (www.r-project.org).
Mutual exclusivitity of pairs of mutations were evaluated by fourfold contingency tables and Fisher's exact test. The association between mutations and cytogenetic risk classification was tested using the chi-square test. Hierarchical clustering was performed using the Lance-Williams dissimilarity formula and complete linkage. Survival time was measured from date of randomization to date of death for those who died and date of last follow-up for those who were alive at the time of analysis. Survival probabilities were estimated using the Kaplan-Meier method and compared across mutant and wildtype patients using the log-rank test. Multivariate analyses were conducted using the Cox model. Proportional hazards assumption was checked by testing for a non-zero slope in a regression of the scaled Schoenfeld residuals on functions of time. […]

The structures appear in SMILES notation.

For `COc1cccc2c1C(=O)c1c(O)c3c(c(O)c1C2=O)C[C@@](O)(C(C)=O)C[C@@H]3O[C@H]1C[C@H](N)[C@H](O)[C@H](C)O1` [daunorubicin], the “outcome with dose-intensified induction therapy” value (AML patients with MLL translocations) is given as “improved outcome” and the “outcome with dose-intensified induction therapy” value (AML patients with NPM1 mutations) is “improved outcome”. Further, the “survival with high-dose daunorubicin according to treatment arm” value (DNMT3A mutant patients) is “associated with improved survival”. Where the note is “patients receiving high-dose or standard-dose daunorubicin, FIG. 4B”, the “impact of DNMT3A mutational status on the outcome with dose-intensive chemotherapy” value is recorded as “significant impact”. Further, for the setting “patients with DNMT3A or NPM1 mutations or MLL translocations, cytarabine plus 90 vs 45 mg/m^2 daunorubicin induction”, the “overall survival, high-dose relative to standard dose daunorubicin” value is reported as “improved survival”.

The values above are taken from patent US20150031641A1, “METHODS AND COMPOSITIONS FOR THE DIAGNOSIS, PROGNOSIS AND TREATMENT OF ACUTE MYELOID LEUKEMIA” (MEMORIAL SLOAN-KETTERING CANCER CENTER, priority 2012, published 2015).
